Experimental data as given in patent US20250171457A1, “NITROGEN-CONTAINING HETEROCYCLIC COMPOUND HAVING NRF2 ACTIVATION EFFECT” (CHUGAI SEIYAKU KABUSHIKI KAISHA, priority 2022, published 2025).
pEC50: −log10 of the molar value.

What follows are compounds tested on Nrf2 transcriptional activity (pARE-Luc reporter) in HepG2 cells (assay: In vitro Nrf2 transcriptional activity measurement by ARE-dependent reporter assay in HepG2 cell). Settings: Homo sapiens; HepG2 cells transfected with pARE-Luc, 4 hours at 37° C.; luciferase activity of Example 1-54 or Example 17-23 at 3.75 μM defined as 100%.
Format: cell-based, human
Method in brief: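 HepG2 cells transfected with pGL4.37 (pARE-Luc), replated onto compound and incubated 4 h at 37° C; luciferase read by Bright-Glo luminescence. Response normalized to 100% set by a reference compound at 3.75 μM; EC50 from dose-response curve.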

SMILES	pEC50
COCCOC1CN(c2cc(Cl)c(C(=O)N3COc4c(cccc4-c4cc(N5C6CCC5COC6)c(C(=O)O)cc4F)C3)c(Cl)c2)C1 [Compound 6-8, 4-[3-[2,6-Dichloro-4-[3-(2-methoxyethoxy)azetidin-1-yl]benzoyl]-2,4-dihydro-1,3-benzoxazin-8-yl]-5-fluoro-2-(3-oxa-8-azabicyclo[3.2.1]octan-8-yl)benzoic acid]	8.62
COCCOC1CC2(C1)CN(c1cc(Cl)c(C(=O)N3COc4c(cccc4-c4cc(N5C6CCC5COC6)c(C(=O)O)cc4F)C3)c(Cl)c1)C2 [Compound 6-9, 4-[3-[2,6-Dichloro-4-[6-(2-methoxyethoxy)-2-azaspiro[3.3]heptan-2-yl]benzoyl]-2,4-dihydro-1,3-benzoxazin-8-yl]-5-fluoro-2-(3-oxa-8-azabicyclo[3.2.1]octan-8-yl)benzoic acid]	8.66
O=C(O)c1cc(F)c(-c2cccc3c2OCN(C(=O)c2c(Cl)cc(N4CC5(CC(OC6COC6)C5)C4)cc2Cl)C3)cc1N1C2CCC1COC2 [Compound 6-10, 4-[3-[2,6-Dichloro-4-[6-(oxetan-3-yloxy)-2-azaspiro[3.3]heptan-2-yl]benzoyl]-2,4-dihydro-1,3-benzoxazin-8-yl]-5-fluoro-2-(3-oxa-8-azabicyclo[3.2.1]octan-8-yl)benzoic acid]	8.43
O=C(O)c1cc(F)c(-c2cccc3c2OCN(C(=O)c2c(Cl)cc(N4CC5(CN(CC6(F)COC6)C5)C4)cc2Cl)C3)cc1N1C2CCC1COC2 [Compound 7-1, 4-[3-[2,6-Dichloro-4-[6-[(3-fluorooxetan-3-yl)methyl]-2,6-diazaspiro[3.3]heptan-2-yl]benzoyl]-2,4-dihydro-1,3-benzoxazin-8-yl]-5-fluoro-2-(3-oxa-8-azabicyclo[3.2.1]octan-8-yl)benzoic acid]	8.32
COCCN1CC2(C1)CN(c1cc(Cl)c(C(=O)N3COc4c(cccc4-c4cc(N5C6CCC5COC6)c(C(=O)O)cc4F)C3)c(Cl)c1)C2 [Compound 7-3, 4-[3-[2,6-Dichloro-4-[6-(2-methoxyethyl)-2,6-diazaspiro[3.3]heptan-2-yl]benzoyl]-2,4-dihydro-1,3-benzoxazin-8-yl]-5-fluoro-2-(3-oxa-8-azabicyclo[3.2.1]octan-8-yl)benzoic acid]	7.74
O=C(O)c1cc(F)c(-c2cccc3c2OCN(C(=O)c2c(Cl)cc(N4CC5(CCN5CC(F)F)C4)cc2Cl)C3)cc1N1C2CCC1COC2 [Compound 7-4, 4-[3-[2,6-Dichloro-4-[1-(2,2-difluoroethyl)-1,6-diazaspiro[3.3]heptan-6-yl]benzoyl]-2,4-dihydro-1,3-benzoxazin-8-yl]-5-fluoro-2-(3-oxa-8-azabicyclo[3.2.1]octan-8-yl)benzoic acid]	8.37
O=C(O)c1cc(F)c(-c2cccc3c2OCN(C(=O)c2c(Cl)cc(N4CC5(CN(CC(F)(F)F)C5)C4)cc2Cl)C3)cc1N1C2CCC1COC2 [Compound 7-5, 4-[3-[2,6-Dichloro-4-[6-(2,2,2-trifluoroethyl)-2,6-diazaspiro[3.3]heptan-2-yl]benzoyl]-2,4-dihydro-1,3-benzoxazin-8-yl]-5-fluoro-2-(3-oxa-8-azabicyclo[3.2.1]octan-8-yl)benzoic acid]	8.43
COCCN1CCC12CN(c1cc(Cl)c(C(=O)N3COc4c(cccc4-c4cc(N5C6CCC5COC6)c(C(=O)O)cc4F)C3)c(Cl)c1)C2 [Compound 7-6, 4-[3-[2,6-Dichloro-4-[1-(2-methoxyethyl)-1,6-diazaspiro[3.3]heptan-6-yl]benzoyl]-2,4-dihydro-1,3-benzoxazin-8-yl]-5-fluoro-2-(3-oxa-8-azabicyclo[3.2.1]octan-8-yl)benzoic acid]	8.27
CC(C)(C#N)CN1CC2(C1)CN(c1cc(Cl)c(C(=O)N3COc4c(cccc4-c4cc(N5C6CCC5COC6)c(C(=O)O)cc4F)C3)c(Cl)c1)C2 [Compound 7-7, 4-[3-[2,6-Dichloro-4-[6-(2-cyano-2-methylpropyl)-2,6-diazaspiro[3.3]heptan-2-yl]benzoyl]-2,4-dihydro-1,3-benzoxazin-8-yl]-5-fluoro-2-(3-oxa-8-azabicyclo[3.2.1]octan-8-yl)benzoic acid]	8.47
COCCN1CCN(c2cc(Cl)c(C(=O)N3COc4c(cccc4-c4cc(N5C6CCC5COC6)c(C(=O)O)cc4F)C3)c(Cl)c2)[C@@H](C)C1 [Compound 7-8, 4-[3-[2,6-Dichloro-4-[(2S)-4-(2-methoxyethyl)-2-methylpiperazin-1-yl]benzoyl]-2,4-dihydro-1,3-benzoxazin-8-yl]-5-fluoro-2-(3-oxa-8-azabicyclo[3.2.1]octan-8-yl)benzoic acid]	8.49
COCCN1CCN(c2cc(Cl)c(C(=O)N3COc4c(cccc4-c4cc(N5C6CCC5COC6)c(C(=O)O)cc4F)C3)c(Cl)c2)[C@H](C)C1 [Compound 7-9, 4-[3-[2,6-Dichloro-4-[(2R)-4-(2-methoxyethyl)-2-methylpiperazin-1-yl]benzoyl]-2,4-dihydro-1,3-benzoxazin-8-yl]-5-fluoro-2-(3-oxa-8-azabicyclo[3.2.1]octan-8-yl)benzoic acid]	8.08
COCCN1CC2CC(C1)N2c1cc(Cl)c(C(=O)N2COc3c(cccc3-c3cc(N4C5CCC4COC5)c(C(=O)O)cc3F)C2)c(Cl)c1 [Compound 7-10, 4-[3-[2,6-Dichloro-4-[3-(2-methoxyethyl)-3,6-diazabicyclo[3.1.1]heptan-6-yl]benzoyl]-2,4-dihydro-1,3-benzoxazin-8-yl]-5-fluoro-2-(3-oxa-8-azabicyclo[3.2.1]octan-8-yl)benzoic acid]	7.57
COCCN1C2CCC1CN(c1cc(Cl)c(C(=O)N3COc4c(cccc4-c4cc(N5C6CCC5COC6)c(C(=O)O)cc4F)C3)c(Cl)c1)C2 [Compound 7-11, 4-[3-[2,6-Dichloro-4-[8-(2-methoxyethyl)-3,8-diazabicyclo[3.2.1]octan-3-yl]benzoyl]-2,4-dihydro-1,3-benzoxazin-8-yl]-5-fluoro-2-(3-oxa-8-azabicyclo[3.2.1]octan-8-yl)benzoic acid]	8.49
COCCN1CC2CCC(C1)N2c1cc(Cl)c(C(=O)N2COc3c(cccc3-c3cc(N4C5CCC4COC5)c(C(=O)O)cc3F)C2)c(Cl)c1 [Compound 7-12, 4-[3-[2,6-Dichloro-4-[3-(2-methoxyethyl)-3,8-diazabicyclo[3.2.1]octan-8-yl]benzoyl]-2,4-dihydro-1,3-benzoxazin-8-yl]-5-fluoro-2-(3-oxa-8-azabicyclo[3.2.1]octan-8-yl)benzoic acid]	8.64
O=C(O)c1cc(F)c(-c2cccc3c2OCN(C(=O)c2c(Cl)cc(N4CC5CCC(C4)N5CC(F)F)cc2Cl)C3)cc1N1C2CCC1COC2 [Compound 7-13, 4-[3-[2,6-Dichloro-4-[8-(2,2-difluoroethyl)-3,8-diazabicyclo[3.2.1]octan-3-yl]benzoyl]-2,4-dihydro-1,3-benzoxazin-8-yl]-5-fluoro-2-(3-oxa-8-azabicyclo[3.2.1]octan-8-yl)benzoic acid]	8.24
COCCN1C2CC1CN(c1cc(Cl)c(C(=O)N3COc4c(cccc4-c4cc(N5C6CCC5COC6)c(C(=O)O)cc4F)C3)c(Cl)c1)C2 [Compound 7-14, 4-[3-[2,6-Dichloro-4-[6-(2-methoxyethyl)-3,6-diazabicyclo[3.1.1]heptan-3-yl]benzoyl]-2,4-dihydro-1,3-benzoxazin-8-yl]-5-fluoro-2-(3-oxa-8-azabicyclo[3.2.1]octan-8-yl)benzoic acid]	7.62
O=C(O)c1cc(F)c(-c2cccc3c2OCN(C(=O)c2c(Cl)cc(N4CC5CCC(C4)N5CC4(F)COC4)cc2Cl)C3)cc1N1C2CCC1COC2 [Compound 7-15, 4-[3-[2,6-Dichloro-4-[8-[(3-fluorooxetan-3-yl)methyl]-3,8-diazabicyclo[3.2.1]octan-3-yl]benzoyl]-2,4-dihydro-1,3-benzoxazin-8-yl]-5-fluoro-2-(3-oxa-8-azabicyclo[3.2.1]octan-8-yl)benzoic acid]	8.60
COCCN1C[C@H]2CC[C@@H]1CN2c1cc(Cl)c(C(=O)N2COc3c(cccc3-c3cc(N4C5CCC4COC5)c(C(=O)O)cc3F)C2)c(Cl)c1 [Compound 7-16, 4-[3-[2,6-Dichloro-4-[(1R,4R)-5-(2-methoxy-ethyl)-2,5-diazabicyclo[2.2.2]octan-2-yl]benzoyl]-2,4-dihydro-1,3-benzoxazin-8-yl]-5-fluoro-2-(3-oxa-8-azabicyclo[3.2.1]octan-8-yl)benzoic acid]	8.13
COCCN1C[C@@H]2CC[C@H]1CN2c1cc(Cl)c(C(=O)N2COc3c(cccc3-c3cc(N4C5CCC4COC5)c(C(=O)O)cc3F)C2)c(Cl)c1 [Compound 7-17, 4-[3-[2,6-Dichloro-4-[(1S,4S)-5-(2-methoxy-ethyl)-2,5-diazabicyclo[2.2.2]octan-2-yl]benzoyl]-2,4-dihydro-1,3-benzoxazin-8-yl]-5-fluoro-2-(3-oxa-8-azabicyclo[3.2.1]octan-8-yl)benzoic acid]	8.05
COCC(COC)N1C2CCC1CN(c1cc(Cl)c(C(=O)N3COc4c(cccc4-c4cc(N5C6CCC5COC6)c(C(=O)O)cc4F)C3)c(Cl)c1)C2 [Compound 7-18, 4-[3-[2,6-Dichloro-4-[8-(1,3-dimethoxypropan-2-yl)-3,8-diazabicyclo[3.2.1]octan-3-yl]benzoyl]-2,4-dihydro-1,3-benzoxazin-8-yl]-5-fluoro-2-(3-oxa-8-azabicyclo[3.2.1]octan-8-yl)benzoic acid]	8.77
COCCN1CCC2(C1)CN(c1cc(Cl)c(C(=O)N3COc4c(cccc4-c4cc(N5C6CCC5COC6)c(C(=O)O)cc4F)C3)c(Cl)c1)C2 [Compound 8-1, 4-[3-[2,6-Dichloro-4-[7-(2-methoxyethyl)-2,7-diazaspiro[3.4]octan-2-yl]benzoyl]-2,4-dihydro-1,3-benzoxazin-8-yl]-5-fluoro-2-(3-oxa-8-azabicyclo[3.2.1]octan-8-yl)benzoic acid]	8.80
